Each block holds one compound with its values, some of them ahead of it.
What was measured:
[1] = tested on: non-castrate hormone-sensitive and bicalutamide-resistant human prostate cancer xenograft models; details: cited from earlier work
[2] = biological target: AR (Homo sapiens, UniProt P10275); details: cited from earlier work
[3] = Plasma kinetics after single subcutaneous dose of rilpivirine nanosuspension with or without rHuPH20 (Example 1); type: in vivo, minipigs; details: minipig, single SC dose 900 mg/3 mL, N=3
Procedure: Six minipigs with body weights ranging from 20 to 25 kg at the start of the study were used. The minipigs were fasted overnight before dosing. Three minipigs were dosed subcutaneously in the loin with 0.19 mL of the hyaluronidase solution (10,000 U/mL) followed by 900 mg/3 mL of the drug nanosuspension at the same injection site (treatment group A). Three minipigs were dosed subcutaneously in the loin with the 900 mg/3 mL of the control drug suspension (treatment group B—control). The injection volume was 3 mL drug suspension in both treatment groups. Method—Sequential Administration • 1. Flip-off rHuPH20 solution vial flip cap and wipe with isopropyl alcohol wipe. Allow to dry. Attach an 18G transfer needle to a 1 mL syringe. • 2. Draw 0.35 mL into the syringe. • 3. Prime the syringe and set liquid level to 0.25 mL in the syringe. • 4. Remove transfer needle and attach syringe cap to 1 mL syringe. • 5. Mix rilpivirine by horizontally shaking the container 30 times over approximately 25 cm within approximately 10 s (a back and forth arm movement=2 times). Ensure well mixed/fully re-supended. • 6. Flip-off rilpivirine vial flip cap and wipe with isopropyl alcohol wipe. Allow to dry. • 7. Attach 18G transfer needle to 5 mL syringe. • 8. Invert vial and draw >3.2 mL into 5 mL syringe mL (or as much as can be removed from vial). Injecting 1-2 mL of air will facilitate draw. • 9. Detach needle and attach a syringe cap to 5 mL syringe • 10. Invert syringe. Wait 5 minutes for bubbles to settle. • 11. Attach a winged infusion set to the rHuPH20 1 mL syringe. Invert syringe and prime off air so that liquid forms at the tip of the needle. (0.19 mL of rHuPH20 should be in the line) • 12. […] Plasma samples were analysed individually by means of a validated LC-MS/MS method. Pharmacokinetic Data Analysis • The pharmacokinetic profile of the blood plasma samples was evaluated using non-compartmental pharmacokinetic analysis (using individual Cp vs time profiles). Mean plasma concentrations and PK parameters (Cmax, Tmax, t1/2 and AUC values) were measured and the results are provided in Table 1.

Sequence of AR (P10275 whole entry): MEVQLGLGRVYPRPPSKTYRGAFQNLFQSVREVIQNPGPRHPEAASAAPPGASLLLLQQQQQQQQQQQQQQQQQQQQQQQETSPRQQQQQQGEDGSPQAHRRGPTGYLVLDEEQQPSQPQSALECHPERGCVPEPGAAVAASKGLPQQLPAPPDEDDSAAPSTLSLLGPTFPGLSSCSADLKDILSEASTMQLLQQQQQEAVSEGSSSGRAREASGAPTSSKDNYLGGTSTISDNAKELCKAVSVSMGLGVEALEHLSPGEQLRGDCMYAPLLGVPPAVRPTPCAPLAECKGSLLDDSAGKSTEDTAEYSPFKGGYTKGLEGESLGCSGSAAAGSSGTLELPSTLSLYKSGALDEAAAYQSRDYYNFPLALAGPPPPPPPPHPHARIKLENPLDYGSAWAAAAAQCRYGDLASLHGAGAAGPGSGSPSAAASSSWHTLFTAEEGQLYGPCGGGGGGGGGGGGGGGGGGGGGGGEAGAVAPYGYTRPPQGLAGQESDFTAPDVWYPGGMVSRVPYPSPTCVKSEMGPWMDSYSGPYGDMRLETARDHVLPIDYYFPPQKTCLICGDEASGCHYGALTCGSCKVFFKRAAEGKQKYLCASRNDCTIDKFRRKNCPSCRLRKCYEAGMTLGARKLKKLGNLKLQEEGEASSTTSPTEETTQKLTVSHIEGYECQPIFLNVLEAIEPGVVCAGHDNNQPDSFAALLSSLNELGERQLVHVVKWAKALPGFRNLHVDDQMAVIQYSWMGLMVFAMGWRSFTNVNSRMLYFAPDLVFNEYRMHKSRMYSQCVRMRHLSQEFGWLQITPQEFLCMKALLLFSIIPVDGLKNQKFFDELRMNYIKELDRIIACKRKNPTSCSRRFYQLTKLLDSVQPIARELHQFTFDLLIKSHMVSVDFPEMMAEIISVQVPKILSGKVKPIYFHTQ

SMILES: CNC(=O)c1ccc(N2C(=S)N(c3cnc(C#N)c(C(F)(F)F)c3)C(=O)C23CCC3)cc1F [Apalutamide, 4-[7-(6-cyano-5-trifluoromethylpyridin-3-yl)-8-oxo-6-thioxo-5,7-diazaspiro[3.4]oct-5-yl]-2-fluoro-N-methylbenzamide]
tumor response [1]: partial or complete tumor regression

SMILES: CC(O)c1cc(C(=O)N[C@@H](C)Cn2ccc(-c3ccc(C#N)c(Cl)c3)n2)n[nH]1 (stereo partly drawn) [Darolutamide, N-{(2S)-1-[3-(3-chloro-4-cyanophenyl)-1H-pyrazol-1-yl]propan-2-yl}-5-(1-hydroxyethyl)-1H-pyrazole-3-carboxamide]
AR binding affinity [2]: high affinity

Tlast ([3]; median): 2160 h
λz [3]: 0.0009 ± 0.00009 h⁻¹
AUC(0-inf) ([3]; plasma): 27000 ± 3200 ng·h/mL
SMILES: Cc1cc(/C=C/C#N)cc(C)c1Nc1ccnc(Nc2ccc(C#N)cc2)n1 [Rilpivirine, 4-[[4-[[4-[(1E)-2-cyanoethenyl]-2,6-dimethylphenyl]amino]-2-pyrimidinyl]amino]benzonitrile]
